In PubChem BioAssay (NCI):
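Exposure lasted 48 hours, with cells grown in 96-well plates and compounds tested at five concentrations. Definition used: TGI = concentration required for complete inhibition of growth.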

Tests used:
Test in all cases: NCI-60 cell line screen, 48 h
HCT-15 colon = test system: HCT-15 colon
HL-60(TB) leukemia = test system: HL-60(TB) leukemia
TK-10 renal = test system: TK-10 renal
M14 melanoma = test system: M14 melanoma
A549 NSCLC = test system: A549 NSCLC
OVCAR-8 ovarian = test system: OVCAR-8 ovarian
HCC-2998 colon = test system: HCC-2998 colon
OVCAR-5 ovarian = test system: OVCAR-5 ovarian
HOP-18 NSCLC = test system: HOP-18 NSCLC
DMS 114 small cell lung = test system: DMS 114 small cell lung
NCI-H460 lung = test system: NCI-H460 lung
HOP-92 NSCLC = test system: HOP-92 NSCLC
SF-539 CNS = test system: SF-539 CNS
DLD-1 colon = test system: DLD-1 colon
RPMI-8226 leukemia = test system: RPMI-8226 leukemia
SF-268 CNS = test system: SF-268 CNS
MALME-3M melanoma = test system: MALME-3M melanoma
CCRF-CEM leukemia = test system: CCRF-CEM leukemia
OVCAR-4 ovarian = test system: OVCAR-4 ovarian
SK-OV-3 ovarian = test system: SK-OV-3 ovarian
KM20L2 colon = test system: KM20L2 colon
HCT-116 colon = test system: HCT-116 colon
SK-MEL-5 melanoma = test system: SK-MEL-5 melanoma
RXF 393 renal = test system: RXF 393 renal
HOP-62 NSCLC = test system: HOP-62 NSCLC
K-562 leukemia = test system: K-562 leukemia
LOX IMVI melanoma = test system: LOX IMVI melanoma
SNB-75 CNS = test system: SNB-75 CNS
UACC-62 melanoma = test system: UACC-62 melanoma
IGROV1 ovarian = test system: IGROV1 ovarian
EKVX NSCLC = test system: EKVX NSCLC
NCI-H23 lung = test system: NCI-H23 lung
NCI-H522 lung = test system: NCI-H522 lung
SK-MEL-2 melanoma = test system: SK-MEL-2 melanoma
OVCAR-3 ovarian = test system: OVCAR-3 ovarian
UACC-257 melanoma = test system: UACC-257 melanoma
ACHN renal = test system: ACHN renal
KM12 colon = test system: KM12 colon
SNB-19 CNS = test system: SNB-19 CNS
CAKI-1 renal = test system: CAKI-1 renal
786-0 renal = test system: 786-0 renal
LXFL 529 NSCLC = test system: LXFL 529 NSCLC
U251 CNS = test system: U251 CNS
UO-31 renal = test system: UO-31 renal
SW-620 colon = test system: SW-620 colon
M19-MEL melanoma = test system: M19-MEL melanoma
SF-295 CNS = test system: SF-295 CNS
SNB-78 CNS = test system: SNB-78 CNS
NCI-H226 lung = test system: NCI-H226 lung
COLO 205 colon = test system: COLO 205 colon
MOLT-4 leukemia = test system: MOLT-4 leukemia
SN12C renal = test system: SN12C renal
SK-MEL-28 melanoma = test system: SK-MEL-28 melanoma
SR leukemia = test system: SR leukemia
A498 renal = test system: A498 renal
HT29 colon = test system: HT29 colon
DMS 273 small cell lung = test system: DMS 273 small cell lung
MDA-N = test system: MDA-N
BT-549 breast = test system: BT-549 breast
MDA-MB-231 breast = test system: MDA-MB-231 breast
T-47D breast = test system: T-47D breast
DU-145 prostate = test system: DU-145 prostate
PC-3 prostate = test system: PC-3 prostate
NCI/ADR-RES ovarian = test system: NCI/ADR-RES ovarian
MDA-MB-435 = test system: MDA-MB-435
MCF7 breast = test system: MCF7 breast
HS 578T breast = test system: HS 578T breast

`COc1cc(C=O)c(-c2cc(OC)c(OC)cc2C=O)cc1OC` was tested, and the TGI (HCT-15 colon) was > 100 µM, the TGI (HL-60(TB) leukemia) was > 100 µM and the TGI (TK-10 renal) was > 100 µM. The TGI (M14 melanoma) was > 100 µM, the TGI (A549 NSCLC) was > 100 µM and the TGI (OVCAR-8 ovarian) was > 100 µM. For the same compound, the TGI (HCC-2998 colon) was > 100 µM, the TGI (OVCAR-5 ovarian) was > 100 µM and the TGI (HOP-18 NSCLC) was > 100 µM. The TGI (DMS 114 small cell lung) was 88.3 µM, the TGI (NCI-H460 lung) was > 100 µM and the TGI (HOP-92 NSCLC) was > 100 µM. The TGI (SF-539 CNS) was > 100 µM, the TGI (DLD-1 colon) was > 100 µM and the TGI (RPMI-8226 leukemia) was > 100 µM. For the same compound, the TGI (SF-268 CNS) was > 100 µM, the TGI (MALME-3M melanoma) was > 100 µM and the TGI (CCRF-CEM leukemia) was > 100 µM. For the same compound, the TGI (OVCAR-4 ovarian) was > 100 µM, the TGI (SK-OV-3 ovarian) was > 100 µM and the TGI (KM20L2 colon) was > 100 µM. The TGI (HCT-116 colon) was > 100 µM, the TGI (SK-MEL-5 melanoma) was > 100 µM and the TGI (RXF 393 renal) was 86.3 µM. For the same compound, the TGI (HOP-62 NSCLC) was > 100 µM, the TGI (K-562 leukemia) was > 100 µM and the TGI (LOX IMVI melanoma) was 66 µM. The TGI (SNB-75 CNS) was > 100 µM, the TGI (UACC-62 melanoma) was > 100 µM and the TGI (IGROV1 ovarian) was > 100 µM. For the same compound, the TGI (EKVX NSCLC) was > 100 µM, the TGI (NCI-H23 lung) was > 100 µM and the TGI (NCI-H522 lung) was > 100 µM. The TGI (SK-MEL-2 melanoma) was > 100 µM, the TGI (OVCAR-3 ovarian) was > 100 µM and the TGI (UACC-257 melanoma) was > 100 µM. The TGI (ACHN renal) was > 100 µM, the TGI (KM12 colon) was > 100 µM and the TGI (SNB-19 CNS) was > 100 µM. For the same compound, the TGI (CAKI-1 renal) was > 100 µM, the TGI (786-0 renal) was > 100 µM and the TGI (LXFL 529 NSCLC) was > 100 µM. For the same compound, the TGI (U251 CNS) was > 100 µM, the TGI (UO-31 renal) was > 100 µM and the TGI (SW-620 colon) was > 100 µM. The TGI (M19-MEL melanoma) was > 100 µM, the TGI (SF-295 CNS) was > 100 µM and the TGI (SNB-78 CNS) was > 100 µM. For the same compound, the TGI (NCI-H226 lung) was > 100 µM, the TGI (COLO 205 colon) was > 100 µM and the TGI (MOLT-4 leukemia) was > 100 µM. For the same compound, the TGI (SN12C renal) was > 100 µM, the TGI (SK-MEL-28 melanoma) was > 100 µM and the TGI (SR leukemia) was 88.9 µM. For the same compound, the TGI (A498 renal) was > 100 µM, the TGI (HT29 colon) was > 100 µM and the TGI (DMS 273 small cell lung) was > 100 µM.

Work on `O=C1NC(=O)C(c2c[nH]c3ccccc23)=C1c1cn(C(c2ccccc2)(c2ccccc2)c2ccccc2)cn1` yielded a TGI (HCT-15 colon) of 14.9 µM, a TGI (HL-60(TB) leukemia) of 20.4 µM and a TGI (MDA-N) of 17.9 µM. It also gave a TGI (BT-549 breast) of 27.2 µM, a TGI (TK-10 renal) of 36.5 µM and a TGI (MDA-MB-231 breast) of 25.7 µM. For the same compound, the TGI (T-47D breast) was 23.7 µM, the TGI (M14 melanoma) was 16.3 µM and the TGI (A549 NSCLC) was 12.8 µM. For the same compound, the TGI (OVCAR-8 ovarian) was 28.2 µM, the TGI (HCC-2998 colon) was 16 µM and the TGI (OVCAR-5 ovarian) was 23.1 µM. The TGI (NCI-H460 lung) was 14.6 µM, the TGI (HOP-92 NSCLC) was 21.9 µM and the TGI (DU-145 prostate) was 63.5 µM. For the same compound, the TGI (SF-539 CNS) was 35.8 µM, the TGI (RPMI-8226 leukemia) was 10.4 µM and the TGI (SF-268 CNS) was 33.2 µM. The TGI (MALME-3M melanoma) was 23.2 µM, the TGI (CCRF-CEM leukemia) was 17.4 µM and the TGI (OVCAR-4 ovarian) was 17.5 µM. The TGI (SK-OV-3 ovarian) was 57 µM, the TGI (HCT-116 colon) was 13.1 µM and the TGI (SK-MEL-5 melanoma) was 20.8 µM. For the same compound, the TGI (RXF 393 renal) was 36.1 µM, the TGI (PC-3 prostate) was 7.24 µM and the TGI (K-562 leukemia) was 28.7 µM. The TGI (LOX IMVI melanoma) was 22.2 µM, the TGI (SNB-75 CNS) was 22.1 µM and the TGI (NCI/ADR-RES ovarian) was 22 µM. For the same compound, the TGI (UACC-62 melanoma) was 30.1 µM, the TGI (IGROV1 ovarian) was 26.2 µM and the TGI (EKVX NSCLC) was 19.4 µM. It also gave a TGI (NCI-H23 lung) of 30.8 µM, a TGI (NCI-H522 lung) of 22.9 µM and a TGI (MDA-MB-435) of 12.9 µM. For the same compound, the TGI (SK-MEL-2 melanoma) was 25.6 µM, the TGI (OVCAR-3 ovarian) was 19.6 µM and the TGI (UACC-257 melanoma) was 26.6 µM. For the same compound, the TGI (ACHN renal) was 26.6 µM, the TGI (KM12 colon) was 13.5 µM and the TGI (SNB-19 CNS) was 65.3 µM. For the same compound, the TGI (CAKI-1 renal) was > 100 µM, the TGI (786-0 renal) was 22.3 µM and the TGI (U251 CNS) was 15.3 µM. The TGI (SW-620 colon) was 30 µM, the TGI (MCF7 breast) was 17.7 µM and the TGI (SF-295 CNS) was 19.8 µM. The TGI (NCI-H226 lung) was 19.9 µM, the TGI (HS 578T breast) was 68.2 µM and the TGI (COLO 205 colon) was 15 µM. It also gave a TGI (MOLT-4 leukemia) of 7.39 µM, a TGI (SN12C renal) of 20.3 µM and a TGI (SK-MEL-28 melanoma) of 44.9 µM. For the same compound, the TGI (SR leukemia) was 6.78 µM, the TGI (A498 renal) was 18.3 µM and the TGI (HT29 colon) was 13.3 µM.
